Assay results taken from ChEMBL document CHEMBL3351587, “Revised stereochemistry of ficifolidione and its biological activities against insects and cells” (J Nat Prod, 2015).
pIC50: −log10 of the molar value. The source made the active and inactive calls. The rule behind the calls is not given here.

Assays:
[1] = Cytotoxicity against human HL60 cells after 48 hrs by WST-8 assay; type: functional, cell-based; conditions: HL-60, 48 h
Colon 26 [2] = experiment: Cytotoxicity against mouse Colon 26 cells after 48 hrs by WST-8 assay; type: functional, cell-based; conditions: Colon 26, 48 h
[3] = Cytotoxicity against Sf9 cells after 48 hrs by WST-8 assay; type: functional, cell-based; conditions: Spodoptera frugiperda, Sf9, 48 h
Vero = experiment: Cytotoxicity against african green monkey Vero cells after 48 hrs by WST-8 assay; type: functional, cell-based; conditions: Chlorocebus sabaeus
Culex pipiens [4] = experiment: Insecticidal activity against mosquito larvae at 50 uM; type: functional, organism-based
Musca domestica = experiment: Insecticidal activity against adult housefly at 44 ug/insect administered topically; type: functional, organism-based
Culex pipiens [5] = experiment: Insecticidal activity against mosquito larvae at 1.2 ug/insect administered as injection; type: functional, organism-based
HL-60 [6] = experiment: Induction of apoptosis in human HL60 cells assessed as DNA fragmentation at 100 uM after 4 to 6 hrs by electrophoresis; type: functional, cell-based
Spodoptera litura [7] = experiment: Insecticidal activity against cutworms assessed as number of weight reduced larvae at 21 ug, po for a day followed by rearing on normal diet measured on day 4 (reference value: 10 no_unit); type: functional
Spodoptera litura [8] = experiment: Insecticidal activity against cutworms assessed as number of weight reduced larvae at 21 ug, po for a day followed by rearing on normal diet measured on day 1 (reference value: 10 no_unit); type: functional
Spodoptera litura [9] = experiment: Insecticidal activity against cutworms assessed as number of weight reduced larvae at 21 ug, po for a day followed by rearing on normal diet measured on day 7 (reference value: 6.3 no_unit); type: functional
Spodoptera litura [10] = experiment: Insecticidal activity against cutworms assessed as number of weight reduced larvae at 21 ug, po for a day followed by rearing on normal diet measured on day 6 (reference value: 6.7 no_unit); type: functional
Spodoptera litura [11] = experiment: Insecticidal activity against cutworms assessed as number of weight reduced larvae at 21 ug, po for a day followed by rearing on normal diet measured on day 3 (reference value: 10 no_unit); type: functional
Spodoptera litura [12] = experiment: Insecticidal activity against cutworms assessed as growth inhibition at 21 ug, po for a day followed by rearing on normal diet measured up to 7 days; type: functional, organism-based
Spodoptera litura [13] = experiment: Insecticidal activity against cutworms assessed as number of weight reduced larvae at 21 ug, po for a day followed by rearing on normal diet measured on day 5 (reference value: 8.7 no_unit); type: functional
Spodoptera litura [14] = experiment: Insecticidal activity against cutworms at 4 mg/disk by leaf dik assay; type: functional, organism-based
Spodoptera litura [15] = experiment: Insecticidal activity against cutworms assessed as number of weight reduced larvae at 21 ug, po for a day followed by rearing on normal diet measured on day 2 (reference value: 10 no_unit); type: functional
HL-60 [16] = experiment: Induction of apoptosis in human HL60 cells assessed as activation of caspase 3 at 100 uM after 4 to 6 hrs by immunoblotiing; type: functional, cell-based
Colon 26 [17] = experiment: Cytotoxicity against mouse Colon 26 cells at 100 uM after 48 hrs by WST-8 assay; type: functional, cell-based

| SMILES | pIC50 [1] | pIC50 (Colon 26 [2]) | pIC50 [3] | pIC50 (Vero) | Activity (Culex pipiens [4]) | Activity (Musca domestica) | Activity (Culex pipiens [5]) | Activity (Colon 26 [17]) | also measured |
| --- | --- | --- | --- | --- | --- | --- | --- | --- | --- |
| CCC[C@H]1C[C@@]2(CC[C@H]3C[C@@H]2C3(C)C)OC2=C1C(=O)C(C)(C)C(=O)C2(C)C | 4.71 | 4.90 | 4.52 | 4.84 |  |  |  |  |  |
| CCC[C@@H]1C[C@@]2(CC[C@H]3C[C@@H]2C3(C)C)OC2=C1C(=O)C(C)(C)C(=O)C2(C)C | 4.63 | 4.85 | 4.00 | 4.67 |  |  |  |  |  |
| CC(C)C[C@@H]1C[C@@]2(CC[C@H]3C[C@@H]2C3(C)C)OC2=C1C(=O)C(C)(C)C(=O)C2(C)C | 5.44 | 4.87 | 4.20 | 5.08 | inactive | inactive | inactive |  |  |
| CC(C)C[C@H]1C[C@@]2(CC[C@H]3C[C@@H]2C3(C)C)OC2=C1C(=O)C(C)(C)C(=O)C2(C)C | 5.54 | 5.05 | 4.49 | 4.91 | inactive | inactive | inactive |  | Activity (HL-60 [6]): Active; Activity (Spodoptera litura [7]): 9; Activity (Spodoptera litura [8]): 10; Activity (Spodoptera litura [9]): 7; Activity (Spodoptera litura [10]): 7.3; Activity (Spodoptera litura [11]): 9.7; growth inhibition (GI) (Spodoptera litura [12]): Active; Activity (Spodoptera litura [13]): 8.7; Activity (Spodoptera litura [14]): inactive; Activity (Spodoptera litura [15]): 10; Activity (HL-60 [16]): Active |
| C=C1CC[C@H]2C[C@@H]1C2(C)C |  |  |  |  |  |  |  | inactive |  |
| CC1(C)C(=O)CC(=O)C(C)(C)C1=O |  |  |  |  |  |  |  | inactive |  |
